Values after ≈ are worked out from the molar mass of the structure shown.
Assays:
Assay type in all cases: functional
Acinetobacter baumannii = test: Antimicrobial activity against Acinetobacter baumannii ATCC 17961 after 18 hrs by CLSI protocol based broth microdilution method; details: ATCC 17961, 18 h
Escherichia coli [1] = test: Antimicrobial activity against Escherichia coli ATCC 25922 after 18 hrs by CLSI protocol based broth microdilution method; details: ATCC 25922, 18 h
Enterococcus faecium = test: Antimicrobial activity against Enterococcus faecium NCTC after 18 hrs by CLSI protocol based broth microdilution method
Klebsiella pneumoniae [2] = test: Antimicrobial activity against Klebsiella pneumoniae 700603 after 18 hrs by CLSI protocol based broth microdilution method; details: Klebsiella pneumoniae, 700603, 18 h
Staphylococcus aureus [3] = test: Antimicrobial activity against Staphylococcus aureus SG 511 after 18 hrs by CLSI protocol based broth microdilution method; details: SG 511, 18 h
Pseudomonas aeruginosa [4] = test: Antimicrobial activity against Pseudomonas aeruginosa ATCC 27853 after 18 hrs by CLSI protocol based broth microdilution method; details: ATCC 27853, 18 h
Klebsiella aerogenes = test: Antimicrobial activity against Enterobacter aerogenes ATCC 35029 after 18 hrs by CLSI protocol based broth microdilution method; details: ATCC 35029, 18 h
Pseudomonas aeruginosa [5] = test: Antimicrobial activity against Pseudomonas aeruginosa under iron-deficient condition by CLSI protocol based broth microdilution method
Klebsiella pneumoniae [6] = test: Antimicrobial activity against Klebsiella pneumoniae X68 under iron-deficient condition by CLSI protocol based broth microdilution method
Pseudomonas aeruginosa [7] = test: Antimicrobial activity against Pseudomonas aeruginosa 61 under iron-deficient condition by CLSI protocol based broth microdilution method
Pseudomonas aeruginosa [8] = test: Antimicrobial activity against Pseudomonas aeruginosa KW799 under iron-sufficient condition by CLSI protocol based broth microdilution method
Pseudomonas aeruginosa [9] = test: Antimicrobial activity against Pseudomonas aeruginosa 61 under iron-sufficient condition by CLSI protocol based broth microdilution method
Pseudomonas aeruginosa [10] = test: Antimicrobial activity against Pseudomonas aeruginosa PA4 under iron-sufficient condition by CLSI protocol based broth microdilution method
Pseudomonas aeruginosa [11] = test: Antimicrobial activity against Pseudomonas aeruginosa PA6 under iron-deficient condition by CLSI protocol based broth microdilution method
Pseudomonas aeruginosa [12] = test: Antimicrobial activity against Pseudomonas aeruginosa KW799 under iron-deficient condition by CLSI protocol based broth microdilution method
Klebsiella pneumoniae [13] = test: Antimicrobial activity against Klebsiella pneumoniae ATCC 8303 under iron-deficient condition by CLSI protocol based broth microdilution method
Pseudomonas aeruginosa [14] = test: Antimicrobial activity against Pseudomonas aeruginosa PAO1 under iron-deficient condition by CLSI protocol based broth microdilution method
Escherichia coli [15] = test: Antimicrobial activity against Escherichia coli ATCC 25922 under iron-sufficient condition by CLSI protocol based broth microdilution method
Pseudomonas aeruginosa [16] = test: Antimicrobial activity against Pseudomonas aeruginosa PAO1 under iron-sufficient condition by CLSI protocol based broth microdilution method
Klebsiella pneumoniae [17] = test: Antimicrobial activity against Klebsiella pneumoniae X68 under iron-sufficient condition by CLSI protocol based broth microdilution method
Pseudomonas aeruginosa [18] = test: Antimicrobial activity against Pseudomonas aeruginosa PA4 under iron-deficient condition by CLSI protocol based broth microdilution method
Pseudomonas aeruginosa [19] = test: Antimicrobial activity against Pseudomonas aeruginosa under iron-sufficient condition by CLSI protocol based broth microdilution method
Escherichia coli [20] = test: Antimicrobial activity against Escherichia coli ATCC 25922 under iron-deficient condition by CLSI protocol based broth microdilution method
Pseudomonas aeruginosa [21] = test: Antimicrobial activity against Pseudomonas aeruginosa PA6 under iron-sufficient condition by CLSI protocol based broth microdilution method
Klebsiella pneumoniae [22] = test: Antimicrobial activity against Klebsiella pneumoniae ATCC 8303 under iron-sufficient condition by CLSI protocol based broth microdilution method
Staphylococcus aureus [23] = test: Antimicrobial activity against Staphylococcus aureus V41
Streptococcus pneumoniae = test: Antimicrobial activity against Streptococcus pneumoniae PARK
Staphylococcus aureus [24] = test: Antimicrobial activity against Staphylococcus aureus X1.1
Streptococcus = test: Antimicrobial activity against Streptococcus AC283

## O=C(CCC(=O)N(O)CCCCCO)NCCCCCN(O)C(=O)CCC(=O)NCCCCCN(O)C(=O)CCC(=O)N[C@@H](C(=O)N[C@@H]1C(=O)N2C(C(=O)O)=C(Cl)CC[C@H]12)c1ccccc1
Acinetobacter baumannii
  MIC: 64 µM (≈ 60.9 µg/mL)
Escherichia coli [1]
  MIC: 128 µM (≈ 122 µg/mL)
Enterococcus faecium
  MIC: > 128 µM
Klebsiella pneumoniae [2]
  MIC: > 128 µM
Staphylococcus aureus [3]
  MIC: 64 µM (≈ 60.9 µg/mL)
Pseudomonas aeruginosa [4]
  MIC: > 128 µM
Klebsiella aerogenes
  MIC: > 128 µM

## CC1(C)S[C@@H]2[C@H](NC(=O)[C@H](NC(=O)CCC(=O)NC(CCCNC(=O)c3cccc(O)c3O)(CCCNC(=O)c3cccc(O)c3O)CCCNC(=O)c3cccc(O)c3O)c3ccc(O)cc3)C(=O)N2[C@H]1C(=O)O
Pseudomonas aeruginosa [5]
  MIC90: 0.05 µM (≈ 0.0529 µg/mL)
Klebsiella pneumoniae [6]
  MIC90: > 100 µM
Pseudomonas aeruginosa [7]
  MIC90: 0.083 µM (≈ 0.0878 µg/mL)
Pseudomonas aeruginosa [8]
  MIC90: 12.5 to 25 µM (≈ 13.2 to 26.5 µg/mL)
Pseudomonas aeruginosa [9]
  MIC90: 12.5 µM (≈ 13.2 µg/mL)
Pseudomonas aeruginosa [10]
  MIC90: 25 µM (≈ 26.5 µg/mL)
Pseudomonas aeruginosa [11]
  MIC90: > 200 µM
Pseudomonas aeruginosa [12]
  MIC90: 0.05 to 0.083 µM (≈ 0.0529 to 0.0878 µg/mL)
Klebsiella pneumoniae [13]
  MIC90: > 100 µM
Pseudomonas aeruginosa [14]
  MIC90: 0.39 µM (≈ 0.413 µg/mL)
Escherichia coli [15]
  MIC90: 100 µM (≈ 106 µg/mL)
Pseudomonas aeruginosa [16]
  MIC90: 50 µM (≈ 52.9 µg/mL)
Klebsiella pneumoniae [17]
  MIC90: > 200 µM
Pseudomonas aeruginosa [18]
  MIC90: 0.21 µM (≈ 0.222 µg/mL)
Pseudomonas aeruginosa [19]
  MIC90: 25 µM (≈ 26.5 µg/mL)
Escherichia coli [20]
  MIC90: 6.25 µM (≈ 6.61 µg/mL)
Pseudomonas aeruginosa [21]
  MIC90: > 200 µM
Klebsiella pneumoniae [22]
  MIC90: > 200 µM

## O=C(CCC(=O)N(CCCCNC(=O)c1cccc(O)c1O)CCCNC(=O)c1cccc(O)c1O)N[C@@H]1C(=O)N2C(C(=O)O)=C(Cl)CC[C@H]12
Staphylococcus aureus [23]
  MIC: 64 µg/mL (≈ 89.4 µM)
Streptococcus pneumoniae
  MIC: 64 µg/mL (≈ 89.4 µM)
Staphylococcus aureus [24]
  MIC: 64 µg/mL (≈ 89.4 µM)
Streptococcus
  MIC: 16 µg/mL (≈ 22.3 µM)

## O=C(CCC(=O)N(O)CCCCCO)NCCCCCN(O)C(=O)CCC(=O)N[C@@H](C(=O)N[C@@H]1C(=O)N2C(C(=O)O)=C(Cl)CC[C@H]12)c1ccccc1
Acinetobacter baumannii
  MIC: 32 µM (≈ 24 µg/mL)
Escherichia coli [1]
  MIC: ≥ 128 µM
Enterococcus faecium
  MIC: > 128 µM
Klebsiella pneumoniae [2]
  MIC: > 128 µM
Staphylococcus aureus [3]
  MIC: 64 µM (≈ 48.1 µg/mL)
Pseudomonas aeruginosa [4]
  MIC: > 128 µM
Klebsiella aerogenes
  MIC: > 128 µM

## N[C@@H](C(=O)N[C@@H]1C(=O)N2C(C(=O)O)=C(Cl)CC[C@H]12)c1ccccc1 [LORACARBEF ANHYDROUS]
Acinetobacter baumannii
  MIC: > 128 µM
Escherichia coli [1]
  MIC: 2 µM (≈ 0.7 µg/mL)
Enterococcus faecium
  MIC: 32 µM (≈ 11.2 µg/mL)
Klebsiella pneumoniae [2]
  MIC: 128 µM (≈ 44.8 µg/mL)
Staphylococcus aureus [3]
  MIC: 1 µM (≈ 0.35 µg/mL)
Pseudomonas aeruginosa [4]
  MIC: > 128 µM
Klebsiella aerogenes
  MIC: > 128 µM

## O=C(O)c1cn(C2CC2)c2cc(N3CCN(C(=O)CCC(=O)N(O)CCCCCO)CC3)c(F)cc2c1=O
Acinetobacter baumannii
  MIC: 16 µM (≈ 8.52 µg/mL)
Escherichia coli [1]
  MIC: 2 µM (≈ 1.07 µg/mL)
Enterococcus faecium
  MIC: > 128 µM
Klebsiella pneumoniae [2]
  MIC: 16 µM (≈ 8.52 µg/mL)
Staphylococcus aureus [3]
  MIC: 32 µM (≈ 17 µg/mL)
Pseudomonas aeruginosa [4]
  MIC: 128 µM (≈ 68.2 µg/mL)
Klebsiella aerogenes
  MIC: 4 µM (≈ 2.13 µg/mL)

## CC1(C)S[C@@H]2[C@H](NC(=O)[C@H](N)c3ccc(O)cc3)C(=O)N2[C@H]1C(=O)O [AMOXICILLIN]
Pseudomonas aeruginosa [5]
  MIC90: > 200 µM
Klebsiella pneumoniae [6]
  MIC90: > 100 µM
Pseudomonas aeruginosa [7]
  MIC90: 0.39 µM (≈ 0.143 µg/mL)
Pseudomonas aeruginosa [8]
  MIC90: 0.46 to 200 µM (≈ 0.168 to 73.1 µg/mL)
Pseudomonas aeruginosa [9]
  MIC90: 0.46 µM (≈ 0.168 µg/mL)
Pseudomonas aeruginosa [10]
  MIC90: > 200 µM
Pseudomonas aeruginosa [11]
  MIC90: > 200 µM
Pseudomonas aeruginosa [12]
  MIC90: 0.39 to 200 µM (≈ 0.143 to 73.1 µg/mL)
Klebsiella pneumoniae [13]
  MIC90: > 100 µM
Pseudomonas aeruginosa [14]
  MIC90: > 100 µM
Escherichia coli [15]
  MIC90: 4.17 µM (≈ 1.52 µg/mL)
Pseudomonas aeruginosa [16]
  MIC90: > 200 µM
Klebsiella pneumoniae [17]
  MIC90: 100 µM (≈ 36.5 µg/mL)
Pseudomonas aeruginosa [18]
  MIC90: > 100 µM
Pseudomonas aeruginosa [19]
  MIC90: > 200 µM
Escherichia coli [20]
  MIC90: 4.17 µM (≈ 1.52 µg/mL)
Pseudomonas aeruginosa [21]
  MIC90: > 200 µM
Klebsiella pneumoniae [22]
  MIC90: 100 µM (≈ 36.5 µg/mL)

## O=C(CCC(=O)N(O)CCCCCO)NCCCCCN(O)C(=O)CCC(=O)N1CCN(c2cc3c(cc2F)c(=O)c(C(=O)O)cn3C2CC2)CC1
Acinetobacter baumannii
  MIC: 64 µM (≈ 46.9 µg/mL)
Escherichia coli [1]
  MIC: 2 µM (≈ 1.47 µg/mL)
Enterococcus faecium
  MIC: > 128 µM
Klebsiella pneumoniae [2]
  MIC: 128 µM (≈ 93.8 µg/mL)
Staphylococcus aureus [3]
  MIC: 64 µM (≈ 46.9 µg/mL)
Pseudomonas aeruginosa [4]
  MIC: 64 µM (≈ 46.9 µg/mL)
Klebsiella aerogenes
  MIC: 4 µM (≈ 2.93 µg/mL)

Reference: ChEMBL document CHEMBL4373724, “An overview of recent progress in siderophore-antibiotic conjugates” (2019)
